According to publication PMC9920986 (Molecules, 2023):
Where two headings read alike, the source gives them in different places.

Key:
[1] = Antiproliferative assay (MTT colorimetric test, 72 h); type: cell-based; settings: human, n.a. = not active, read-out: A549, CC50
Source text: The cytotoxicity of the synthesized oxindoles was studied using the A549 cell line in which the levels of NQO2 are increased (Table 4). […] The cytotoxicity of the compounds may be due to the inhibition of other enzymes associated with the activation of apoptosis in cancer cells, for example GSK3b or tyrosine kinases, or with the general non-specific toxicity of these compounds. Thus, the influence of NQO2 on A549 cell viability has not been established.
The A549 cells were maintained in F12-K (Gibco, Paisley, UK) supplemented with 10% fetal bovine serum (FBS, Gibco, UK), penicillin (100 UI mL^−1), streptomycin (100 µg mL^−1) and GlutaMax (2 mM, Gibco, UK). All cells line were cultured under a humidified atmosphere of 95% air/5% CO2 at 37 °C. Subconfluent monolayers, in the log growth phase, were harvested by a brief treatment with TrypLE Express solution (Gibco, UK) in phosphate-buffered saline (PBS, Capricorn Scientific, Ebsdorfergrund, Germany) and washed three times in serum-free PBS. The number of viable cells was determined by trypan blue exclusion.
The effects of the synthesized compounds on cell viability were determined using the MTT colorimetric test. All examined cells were diluted with the growth medium to 3.5 × 10^4 cells per mL and the aliquots (7 × 10^3 cells per 200 μL) were placed in individual wells in 96-multiplates (Eppendorf, Germany) and incubated for 24 h. […] After incubation, the cells were then treated with 40 μL MTT solution (3-(4,5-dimethylthiazol-2-yl)-2,5-diphenyltetrazolium bromide, 5 mg mL^−1 in PBS) and incubated for 4 h. After an additional 4 h incubation, the medium with MTT was removed and DMSO (150 μL) was added to dissolve the formazan crystals. The plates were shaken for 10 min. The optical density of each well was determined at 560 nm using a microplate reader GloMax Multi+ (Promega, Madison, WI, USA). Each of the tested compounds was evaluated for cytotoxicity in three separate experiments.

[2] = target: T1, human recombinant NRH:quinone oxidoreductase (NQO2) (Homo sapiens, UniProt P16083); experiment: biochemical; settings: for inhibition at 10 µM: read-out: NQO2 Inhibition, %
T1 construct: purchased Sigma Q0380
T1 sequence (P16083 1-231): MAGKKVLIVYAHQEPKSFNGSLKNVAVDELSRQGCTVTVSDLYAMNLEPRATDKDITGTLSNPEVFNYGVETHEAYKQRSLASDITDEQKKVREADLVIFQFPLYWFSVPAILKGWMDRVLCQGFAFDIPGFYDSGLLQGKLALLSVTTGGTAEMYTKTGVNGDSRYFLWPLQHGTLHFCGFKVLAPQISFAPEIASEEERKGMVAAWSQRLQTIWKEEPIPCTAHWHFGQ
Method: The inhibition activity of all synthesized compounds at a concentration of 10 µM was preliminarily tested in vitro using human recombinant NRH:quinone oxidoreductase (NQO2).
The activity of recombinant human NQO2 (Sigma #Q0380, St. Louis, […], USA) was evaluated kinetically using menadione and N-benzyl-dihydronicotinamide (BNAH) as the substrate and co-substrate, respectively. All reagents and test compounds were dissolved in 50 mM Hepes-KOH (pH 7.4) containing 1 mM of β-octyl-D-glucopyranoside, 0.1 mg/mL BSA and 1 μM FAD. […] The solutions of the test compounds were pre-incubated for 5 min with 50 μL of human recombinant NQO2 (final concentration 42 ng/mL). Then, 25 μL of menadione was introduced at a final concentration of 100 μM. The reaction was started with 25 μL of 100 μM BNAH. The fluorescence of the co-substrate BNAH was followed at wavelengths of 370/440 nm at 37 °C using an Infinite M200 Pro microplate reader (Tecan, Grödig, Austria). The fluorescence data was fit according to a one-phase decay nonlinear regression to obtain slope values with Prism 8.0 (GraphPad Inc., San Diego, CA, USA). The activity in sample wells were normalized against negative control and enzyme-blank samples.

[3] = recombinant human NQO2, 100 μM menadione, 100 μM BNAH, read-out: NQO2 IC50 ± SEM

| SMILES | CC50 at 72 h [1] [µM] | IC50 [2, 3] [µM] | IC50 [2] [µM] | other results |
| --- | --- | --- | --- | --- |
| O=C1Nc2ccc(NC(=O)c3ccco3)cc2C1=Cc1ccc(O)cc1 [Compound 18, 3-(4-hydroxybenzylidene)-5-furoylamino-2-oxindole] | 146 ± 11.3 | 0.37 ± 0.02 | – | – |
| O=C1Nc2ccccc2C1=Cc1ccc([N+](=O)[O-])cc1 [Compound 27, 3-((4-nitrophenyl)methylene)-2-oxindole] | – | – | > 50 | – |
| O=C1Nc2ccccc2C1=Cc1ccncc1 [Compound 10, 3-(4-pyridinylmethylidene)-2-oxindole] | 80.3 ± 9.87 | > 50 | – | – |
| CC(=O)Nc1ccc2c(c1)C(=Cc1ccc(O)cc1)C(=O)N2 [Compound 16, (E,Z)-3-(4-Hydroxybenzylidene)-5-acetamido-2-oxindole] | – | 0.99 ± 0.03 | – | – |
| Cc1ccc(C(=O)CC2(O)C(=O)Nc3ccc(NC(=O)c4ccco4)cc32)cc1 (stereo not shown) [Compound 51, 3-hydroxy-5-(2-furoylamino)-3-[2-(4-methylphenyl)-2-oxoethyl]-2-oxindole] | – | – | > 50 | – |
| O=C1Nc2ccccc2C1=Cc1cccs1 [Compound 37, 3-(2-thienylmethylidene)-2-oxindole] | 491 ± 19.9 | – | – | inhibition at 10 µM [2]: 38.1% |
| O=C1Nc2ccc(NC(=O)c3ccccc3)cc2C1=Cc1ccc([N+](=O)[O-])cc1 (mixture of isomers) [Compound 29, 5-benzoylamino-3-((4-nitrophenyl)methylene)-2-oxindole] | – | – | > 50 | – |
| O=C1Nc2ccc(NC(=O)c3ccccc3)cc2C1=Cc1ccc(O)cc1 [Compound 19, 3-(4-hydroxybenzylidene)-5-benzoylamino-2-oxindole] | 412.2 ± 3.98 | – | – | inhibition at 10 µM [2]: 62.9% |
| O=C1Nc2ccc(Br)cc2C1=Cc1ccccn1 [Compound 3, 5-bromo-3-(2-pyridinylmethylidene)-2-oxindole] | 90.6 ± 1.5 | > 50 | – | – |
| O=C1Nc2ccc([N+](=O)[O-])cc2C1=Cc1cccnc1 [Compound 9, 5-nitro-3-(3-pyridinylmethylidene)-2-oxidole] | 429 ± 24 | – | > 50 | – |
| COc1ccc2c(c1)C(O)(CC(=O)c1ccc(C)cc1)C(=O)N2 (stereo not shown) [Compound 48, 3-hydroxy-5-methoxy-3-[2-(4-methylphenyl)-2-oxoethyl]-2-oxindole] | – | > 50 | – | – |
| Nc1ccc(CC2C(=O)Nc3ccccc32)cc1 (stereo not shown) [Compound 46, 3-(4-aminobenzyl)-2-oxindole] | – | – | > 50 | – |
| O=C1Nc2ccc(Br)cc2C1=Cc1ccncc1 [Compound 11, 5-bromo-3-(4-pyridinylmethylidene)-2-oxindole] | 22.3 ± 1.42 | – | – | inhibition at 10 µM [2]: 41.9% |
| CCOc1ccc(/C=C2/C(=O)Nc3ccccc32)cc1 [Compound 22, (E)-3-(4-Ethoxybenzylidene)-2-oxindole] | – | > 50 | – | – |
| O=C1Nc2ccc(Br)cc2C1=Cc1cccs1 [Compound 38, 5-bromo-3-(2-thienylmethylidene)-2-oxindole] | 427 ± 6.2 | – | > 50 | – |
| COC(=O)Nc1ccc2c(c1)C(=Cc1ccc(O)cc1)C(=O)N2 [Compound 17, 3-(4-hydroxybenzylidene)-5-(methoxycarbonylamino)-2-oxindole] | 44.43 ± 0.29 | 0.44 ± 0.02 | – | – |
| CC(=O)Nc1ccc2c(c1)C(=Cc1cccc(O)c1)C(=O)N2 [Compound 13, 3-(3-hydroxybenzylidene)-5-acetylamino-2-oxindole] | 176 ± 4.76 | – | 0.64 ± 0.04 | – |
| O=C1Nc2ccc(Br)cc2C1=Cc1ccco1 [Compound 35, 5-bromo-3-(2-furylmethylidene)-2-oxindole] | 449 ± 18.7 | – | > 50 | – |
| COc1cc(C=C2C(=O)Nc3ccc(NC(=O)c4ccco4)cc32)cc(OC)c1OC [Compound 25, 3-(3,4,5-trimethoxybenzylidene)-5-furoylamino-2-oxindole] | 201 ± 22.7 | – | 0.66 ± 0.02 | – |

| SMILES | CC50 at 72 h [1] [µM] | IC50 [2, 3] [µM] | IC50 [2] [µM] | other results |
| --- | --- | --- | --- | --- |
| O=C1Nc2ccc(NC(=O)c3ccccc3)cc2C1=Cc1ccccn1 [Compound 6, (E,Z)-3-(2-Pyridinylmethylidene)-5-benzoylamino-2-oxindole] | 17.4 ± 1.8 | – | – | inhibition at 10 µM [2]: 43.1% |
| COc1ccc(C=C2C(=O)Nc3ccc(NC(=O)c4ccccc4)cc32)cc1 [Compound 21, (E,Z)-3-(4-Methoxybenzylidene)-5-benzoylamino-2-oxindole] | 42.3 ± 8.3 | > 50 | – | – |
| O=c1c(O)c(-c2ccc(O)c(O)c2)oc2cc(O)cc(O)c12 [Quercetin, reference compound] | – | 0.08 ± 0.02 | – | – |
| COC(=O)CCn1cc(C=C2C(=O)Nc3ccccc32)cn1 [Compound 45, (E,Z)-3-(1-[2-(Methoxycarbonyl)ethyl]-1H-pyrazol-4-ylmethylidene)-2-oxindole] | – | – | > 50 | – |
| CCOC(=O)c1[nH]ncc1C=C1C(=O)Nc2ccccc21 [Compound 39, 3-((5-ethoxycarbonyl-1H-pyrazol-4-yl)methylene)-2-oxindole] | 231 | – | – | – |
| COC(=O)Nc1ccc2c(c1)C(=Cc1ccc([N+](=O)[O-])cc1)C(=O)N2 [Compound 28, 3-(4-nitrobenzylidene)-5-(methoxycarbonylamino)-2-oxindole] | – | – | – | inhibition at 10 µM [2]: 74% |
| CN1C(=O)C(=Cc2ccccn2)c2ccccc21 [Compound 2, N-methyl-3-((pyridin-2-yl)methylene)-2-oxindole] | – | – | 16.78 ± 0.09 | – |
| CN1C(=O)C(=Cc2ccc(O)cc2)c2ccccc21 [Compound 15, 3-(4-hydroxybenzylidene)-N-methyl-2-oxindole] | – | 0.62 ± 0.04 | – | – |
| Cc1ccc(C(=O)CC2(O)C(=O)Nc3ccc(Br)cc32)cc1 (stereo not shown) [Compound 49, 3-hydroxy-5-bromo-3-[2-(4-methylphenyl)-2-oxoethyl]-2-oxindole] | – | > 50 | – | – |
| Cc1n[nH]c(C)c1C=C1C(=O)Nc2ccccc21 [Compound 42, 3-((3,5-dimethyl-1H-pyrazol-4-yl)methylene)-2-oxindole] | – | – | – | inhibition at 10 µM [2]: 54.4% |
| Cn1cc(C=C2C(=O)Nc3ccccc32)cn1 [Compound 41, 3-((1-methyl-1H-pyrazol-4-yl)methylene)-2-oxindole] | – | – | 9.4 ± 0.12 | – |
| CN(C)c1ccc(C=C2C(=O)Nc3ccccc32)cc1 [Compound 30, (E,Z)-3-(4-Dimethylaminobenzylidene)-2-oxindole] | – | – | > 50 | – |
| COC(=O)Nc1ccc2c(c1)C(=Cc1ccc(Br)cc1)C(=O)N2 [Compound 32, 3-(4-bromobenzylidene)-5-(methoxycarbonylamino)-2-oxindole] | – | – | 0.61 ± 0.03 | – |
| CCOC(=O)c1[nH]ncc1C=C1C(=O)Nc2ccc([N+](=O)[O-])cc21 [Compound 40, 3-((5-ethoxycarbonyl-1H-pyrazol-4-yl)methylene)-5-nitro-2-oxindole] | – | – | 1.88 ± 0.08 | – |
| COc1cc(C=C2C(=O)Nc3ccc(NC(=O)c4ccccc4)cc32)cc(OC)c1O [Compound 26, (E,Z)-3-(3,5-Dimethoxy-4-hydroxybenzylidene)-5-benzoylamino-2-oxindole] | – | – | – | inhibition at 10 µM [2]: 40.5% |
| Nc1ccc2c(c1)C(Cc1ccccn1)C(=O)N2 (stereo not shown) [Compound 47, 3-(pyridin-2-ylmethyl)-5-amino-2-oxindole] | – | > 50 | – | – |
| Cc1nn(-c2ccccc2)c(C)c1C=C1C(=O)Nc2ccccc21 [Compound 44, 3-((3,5-dimethyl-1-phenyl-1H-pyrazol-4-yl)methylene)-2-oxindole] | – | – | – | inhibition at 10 µM [2]: 43.6% |
| O=C1Nc2ccc([N+](=O)[O-])cc2C1=Cc1ccncc1 [Compound 12, 5-nitro-3-(4-pyridinylmethylidene)-2-oxindole] | – | > 50 | – | – |
| O=C1Nc2ccc([N+](=O)[O-])cc2C1=Cc1ccccn1 [Compound 4, 5-nitro-3-(2-pyridinylmethylidene)-2-oxindole] | – | – | > 50 | – |
